Consider 16 compounds from patent US12570648B2, “6,7-dihydro-5H-pyrido[2,3-c]pyridazine derivatives and related compounds as Bcl-xL protein inhibitors and pro-apoptotic agents for treating cancer” (LES LABORATOIRES SERVIER, priority 2019, dated 2026).

Experiment [1] has as its target His-His-(EK)-hsBCLXL(2-197)[N197C] (Homo sapiens (Human), UniProt Q07817, N197C). Nature of the experiment: Fluorescence quenching assay. It is filed as binding. As to conditions: 1 nM Cy5-labelled protein, 400 nM PUMA peptide, 2 hours at 23° C.; KI determined from IC50. An outline of the steps: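 Ki values converted from IC50s, measured as fluorescence increase (Ex 620/Em 680 nm) after 2 h at 23° C. Compounds were titrated over 11 points against 1 nM Cy5-BCL-xL and 400 nM quencher-tagged PUMA peptide in pH 7.4 HEPES (10 mM), 150 mM NaCl, 0.05% Tween 20, 5% DMSO.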

The next experiment has as its system H146 cells. The experiment can be described thus: H146 cell viability using MTT assay. As to conditions: Homo sapiens, NCI-H146, 48 h exposure. The experiment is classed as cell-based. The procedure: MTT colorimetric assay is based on the mitochondrial reduction of tetrazolium salt by living cells. The viable cell number is proportional to the production of formazan salts, which can be read spectrophotometrically at 540 nm.
MOLT-4 and H146 cells were purchased from ATCC and cultivated in RPMI 1640 supplemented with 10% heat inactivated fetal bovine serum, penicillin (100 IU/ml), streptomycin (100 μg/ml) and L-glutamine (2 mM). Cells were cultured at 37° C. in a humidified atmosphere containing 5% CO2. Cells were seeded in 96 microwell plates (150p per well) and exposed to the compounds for 48 h (3.16 fold serially diluted; 9 concentrations each, triplicates). At the end of incubation time, 15 μL of MTT solution (5 mg/ml) were added per well and the cells were incubated for another 4 h. Then, 100 μL of 10% Sodium Dodecyl Sulfate (SDS)/HCl 10 mM were added per well and the plate was incubated overnight, before measurement of optical density at 540 nm. IC50s were calculated using standard four-parametric curve fitting.

In a further experiment the test system is MOLT-4 cells. The experiment can be described thus: MOLT-4 cell viability using MTT assay. It is filed as cell-based. As to conditions: Homo sapiens, MOLT-4, 48 h, 48 h exposure. The procedure: MTT colorimetric assay is based on the mitochondrial reduction of tetrazolium salt by living cells.
Cells were cultured at 37° C. in a humidified atmosphere containing 5% CO2. […] At the end of incubation time, 15 μL of MTT solution (5 mg/ml) were added per well and the cells were incubated for another 4 h. […] IC50s were calculated using standard four-parametric curve fitting.
A general note: Tetrazolium assays rely on reduction of a dye to a coloured formazan, in cell work by metabolically active cells.

The structures appear in SMILES notation. pIC50, pKi: −log10 of the molar value.

Chain of His-His-(EK)-hsBCLXL(2-197)[N197C] (Q07817 2-197 N197C): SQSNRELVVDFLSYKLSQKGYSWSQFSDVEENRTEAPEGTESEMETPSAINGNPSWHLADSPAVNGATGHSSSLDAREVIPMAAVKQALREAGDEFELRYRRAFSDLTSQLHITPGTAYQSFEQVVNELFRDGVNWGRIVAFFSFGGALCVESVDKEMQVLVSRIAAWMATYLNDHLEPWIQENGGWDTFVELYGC

Take `Cc1c(Nc2nc3ccccc3s2)nnc2c1CCCN2c1nc(C(=O)O)c(CCCOc2ccc(CCCN3CCC4(CC3)CNC(=O)C4)cc2F)s1` [Example 73, 2-[3-(1,3-Benzothiazol-2-ylamino)-4-methyl-6,7-dihydro-5H-pyrido[2,3-c]pyridazin-8-yl]-5-[3-[2-fluoro-4-[3-(3-oxo-2,8-diazaspiro[4.5]decan-8-yl)propyl]phenoxy]propyl]thiazole-4-carboxylic acid]: in experiment [1], the pKi (usually −log10 of the Ki, conventionally taken in molar units) was 11.60. Moreover, the pIC50 (as a rule, the IC50 on a negative log10 scale, so that one unit is a factor of ten) is 7.83 in the experiment with H146 cells and 8.18 with MOLT-4 cells.

In the case of `Cc1c(Nc2nc3ccccc3s2)nnc2c1CCCN2c1nc(C(=O)O)c(CCCOc2ccc(C#CCN3CCN(C)CC3)cc2F)s1` [Example 48, 2-[3-(1,3-Benzothiazol-2-ylamino)-4-methyl-6,7-dihydro-5H-pyrido[2,3-c]pyridazin-8-yl]-5-[3-[2-fluoro-4-[3-(4-methylpiperazin-1-yl)prop-1-ynyl]phenoxy]propyl]thiazole-4-carboxylic acid], the pKi in experiment [1] was 11.80. The values for the pIC50 in the experiment on H146 cells and in the experiment with MOLT-4 cells were 8.65 and 9.51, respectively.

With `Cc1c(Nc2nc3ccccc3s2)nnc2c1CCCN2c1nc(C(=O)O)c(CCCOc2ccc(C#CCN3CCCC3)cc2F)s1` [Example 42, 2-[3-(1,3-Benzothiazol-2-ylamino)-4-methyl-6,7-dihydro-5H-pyrido[2,3-c]pyridazin-8-yl]-5-[3-[2-fluoro-4-(3-pyrrolidin-1-ylprop-1-ynyl)phenoxy]propyl]thiazole-4-carboxylic acid], the pKi in experiment [1] was 11.55. Besides, the pIC50 in the experiment with H146 cells is 8.52; in the experiment on MOLT-4 cells, 9.49.

With `Cc1c(Nc2nc3ccccc3s2)nnc2c1CCCN2c1nc(C(=O)O)c(CCCOc2ccc(C#CCN3CCC(N4CCCCC4)CC3)cc2F)s1` [Example 57, 2-[3-(1,3-Benzothiazol-2-ylamino)-4-methyl-6,7-dihydro-5H-pyrido[2,3-c]pyridazin-8-yl]-5-[3-[2-fluoro-4-[3-[4-(1-piperidyl)-1-piperidyl]prop-1-ynyl]phenoxy]propyl]thiazole-4-carboxylic acid], the pKi in experiment [1] was 11.52. The pIC50 was 8.26 in the experiment with H146 cells and 9.23 in the experiment on MOLT-4 cells.

Regarding `Cc1c(Nc2nc3ccccc3s2)nnc2c1CCCN2c1nc(C(=O)O)c(CCCOc2ccc(C#CCN3C[C@H]4C[C@H]4C3)cc2F)s1` [Example 56, 5-[3-[4-[3-[(1S,5R)-3-Azabicyclo[3.1.0]hexan-3-yl]prop-1-ynyl]-2-fluoro-phenoxy]propyl]-2-[3-(1,3-benzothiazol-2-ylamino)-4-methyl-6,7-dihydro-5H-pyrido[2,3-c]pyridazin-8-yl]thiazole-4-carboxylic acid], the pKi in experiment [1] is 10.31. In addition, the figures for the pIC50 in the experiment on H146 cells and in the experiment on MOLT-4 cells were 7.89 and 8.84, respectively.

Regarding `Cc1c(Nc2nc3ccccc3s2)nnc2c1CCCN2c1nc(C(=O)O)c(CCCOc2ccc(C#CCN3CCC(F)(F)CC3)cc2F)s1` [Example 49, 2-{3-[(1,3-Benzothiazol-2-yl)amino]-4-methyl-5H,6H,7H,8H-pyrido[2,3-c]pyridazin-8-yl}-5-(3-{4-[3-(4,4-difluoropiperidin-1-yl)prop-1-yn-1-yl]-2-fluorophenoxy}propyl)-1,3-thiazole-4-carboxylic acid], in experiment [1], the pKi is 10.19. Also, the values for the pIC50 in the experiment with H146 cells and in the experiment with MOLT-4 cells were 7.48 and 8.67, respectively.

On to `Cc1c(Nc2nc3ccccc3s2)nnc2c1CCCN2c1nc(C(=O)O)c(CCCOc2ccc(C#CCN3CCCCC3)cc2F)s1` [Example 46, 2-[3-(1,3-Benzothiazol-2-ylamino)-4-methyl-6,7-dihydro-5H-pyrido[2,3-c]pyridazin-8-yl]-5-[3-[2-fluoro-4-[3-(1-piperidyl)prop-1-ynyl]phenoxy]propyl]thiazole-4-carboxylic acid], for which, in experiment [1], the pKi was 10.82. The values for the pIC50 with H146 cells and in the experiment on MOLT-4 cells were 7.95 and 8.92, respectively.

Regarding `CNCCN[C@@H]1Cc2c(nnc(Nc3nc4ccccc4s3)c2C)N(c2nc(C(=O)O)c(CCCOc3ccc(CCCN(C)C)cc3F)s2)C1` [Example 39, 2-[(6R)-3-[(1,3-Benzothiazol-2-yl)amino]-4-methyl-6-{[2-(methylamino)ethyl]amino}-5H,6H,7H,8H-pyrido[2,3-c]pyridazin-8-yl]-5-(3-{4-[3-(dimethylamino)propyl]-2-fluorophenoxy}propyl)-1,3-thiazole-4-carboxylic acid], in experiment [1], the pKi was 11.01. Also, the pIC50 was 7.47 in the experiment with H146 cells and 7.43 with MOLT-4 cells.

Turning to `CNCC#Cc1ccc(OCCCc2sc(N3CCc4c3nnc(Nc3nc5ccccc5s3)c4C)nc2C(=O)O)c(F)c1` [Example 37, 2-[3-(1,3-Benzothiazol-2-ylamino)-4-methyl-5,6-dihydropyrrolo[2,3-c]pyridazin-7-yl]-5-[3-[2-fluoro-4-[3-(methylamino)prop-1-ynyl]phenoxy]propyl]thiazole-4-carboxylic acid], the pKi in experiment [1] is 11.11. In addition, the figures for the pIC50 in the experiment with H146 cells and in the experiment with MOLT-4 cells were 7.99 and 8.34, respectively.

For `CNCCc1ccc(OCCCc2sc(N3CCCc4c3nnc(Nc3nc5ccccc5s3)c4C)nc2C(=O)O)c(F)c1` [Example 64, 2-{3-[(1,3-Benzothiazol-2-yl)amino]-4-methyl-5H,6H,7H,8H-pyrido[2,3-c]pyridazin-8-yl}-5-(3-{2-fluoro-4-[2-(methylamino)ethyl]phenoxy}propyl)-1,3-thiazole-4-carboxylic acid], the pKi in experiment [1] is 11.28. For the same compound, the pIC50 is 7.93 in the experiment with H146 cells and 7.52 with MOLT-4 cells.

On to `Cc1c(Nc2nc3ccccc3s2)nnc2c1CCCN2c1nc(C(=O)O)c(CCCOc2ccc(CCCCN(C)C)cc2F)s1` [Example 62, 2-{3-[(1,3-Benzothiazol-2-yl)amino]-4-methyl-5H,6H,7H,8H-pyrido[2,3-c]pyridazin-8-yl}-5-(3-{4-[4-(dimethylamino)butyl]-2-fluorophenoxy}propyl)-1,3-thiazole-4-carboxylic acid], for which the pKi in experiment [1] was 11.47. Further, the results for the pIC50 in the experiment with H146 cells and with MOLT-4 cells were 7.16 and 7.69, respectively.

Take `Cc1c(Nc2nc3ccccc3s2)nnc2c1CCCN2c1nc(C(=O)O)c(CCCOc2ccc(CCCN3CCCCC3)cc2F)s1` [Example 71, 2-[3-(1,3-Benzothiazol-2-ylamino)-4-methyl-6,7-dihydro-5H-pyrido[2,3-c]pyridazin-8-yl]-5-[3-[2-fluoro-4-[3-(1-piperidyl)propyl]phenoxy]propyl]thiazole-4-carboxylic acid]: the negative logarithm of the Ki (pKi) in experiment [1] is 11.35. In addition, the pIC50 was 8.03 in the experiment on H146 cells and 8.68 with MOLT-4 cells.

Turning to `Cc1c(Nc2nc3ccccc3s2)nnc2c1CCCN2c1nc(C(=O)O)c(CCCOc2ccc(C#CCN(C)C)cc2C(F)(F)F)s1` [Example 40, 2-{3-[(1,3-Benzothiazol-2-yl)amino]-4-methyl-5H,6H,7H,8H-pyrido[2,3-c]pyridazin-8-yl}-5-(3-{4-[3-(dimethylamino)prop-1-yn-1-yl]-2-(trifluoromethyl)phenoxy}propyl)-1,3-thiazole-4-carboxylic acid], in experiment [1], the pKi is 10.24. Moreover, the pIC50 in the experiment on H146 cells is 7.68; with MOLT-4 cells, 8.09.

`Cc1c(Nc2nc3ccccc3s2)nnc2c1CCCN2c1nc(C(=O)O)c(CCCOc2ccc(C#CCN(C)C)cc2Cl)s1` [Example 51, 2-{3-[(1,3-Benzothiazol-2-yl)amino]-4-methyl-5H,6H,7H,8H-pyrido[2,3-c]pyridazin-8-yl}-5-(3-{2-chloro-4-[3-(dimethylamino)prop-1-yn-1-yl]phenoxy}propyl)-1,3-thiazole-4-carboxylic acid]: in experiment [1], the pKi is 10.92. Also, the figures for the pIC50 in the experiment on H146 cells and in the experiment on MOLT-4 cells were 8.02 and 8.60, respectively.

Take `Cc1c(Nc2nc3ccccc3s2)nnc2c1CCCN2c1nc(C(=O)O)c(CCCOc2ccc(OCCN3CCCC3)cc2)s1` [Example 52, 2-{3-[(1,3-Benzothiazol-2-yl)amino]-4-methyl-5H,6H,7H,8H-pyrido[2,3-c]pyridazin-8-yl}-5-(3-{4-[2-(pyrrolidin-1-yl)ethoxy]phenoxy}propyl)-1,3-thiazole-4-carboxylic acid]: in experiment [1], the pKi was 11.89. Moreover, the pIC50 in the experiment on H146 cells is 7.97; in the experiment on MOLT-4 cells, 8.62.

With `CNCCOC1Cc2c(nnc(Nc3nc4ccccc4s3)c2C)N(c2nc(C(=O)O)c(CCCOc3ccc(C#CCN(C)C)cc3F)s2)C1` (stereo not drawn) [Example 65, 2-{3-[(1,3-Benzothiazol-2-yl)amino]-4-methyl-6-[2-(methylamino)ethoxy]-5H,6H,7H,8H-pyrido[2,3-c]pyridazin-8-yl}-5-(3-{4-[3-(dimethylamino)prop-1-yn-1-yl]-2-fluorophenoxy}propyl)-1,3-thiazole-4-carboxylic acid], the pKi in experiment [1] is 11.30. Moreover, the pIC50 with H146 cells is 8.40; with MOLT-4 cells, 7.58.
